# pIC50, pKi: −log10 of the molar value.
# Assays:
# [1] = tested on: ovalbumin-sensitized mice; assay: Ovalbumin-induced lung inflammation model, cell counts in BAL fluid; assay type: in vivo, mouse; settings: for maximum reduction in the number of eosinophils: BAL fluid
# human eosinophils = assay: Histamine-induced eosinophil shape change (GAFS); assay type: cell-based; settings: Eosinophil; human eosinophils; read-out: IC50 for inhibition of histamine-induced eosinophil shape change
# Protocol: Human granulocytes were isolated from human blood by a Ficoll gradient. The red blood cells were lysed with 5-10× Qiagen lysis buffer at room temperature for 5-7 min. Granulocytes were harvested and washed once with FACS buffer. The cells were resuspended at a density of 2×10^6 cells/mL in reaction buffer. […] Ten minutes later, the cells were transferred to ice and fixed with 250 μL of ice-cold fixative buffer (2% formaldehyde) for 1 min.
# [2] = tested on: mast cells in the mouse trachea; assay: Histamine-induced accumulation of mast cells in the mouse trachea in vivo; settings: 20 mg/kg subcutaneous, 15 min prior to each histamine aerosol, FIG. 4
# [3] = tested on: mouse bone marrow-derived mast cells; assay: Histamine-induced mast cell chemotaxis in vitro (transwell); assay type: cell-based; settings: Mus musculus, Mast cell
# Protocol: Mast cells were differentiated from bone marrow derived from BALB/c or C57bl/6j mice. Mice were sacrificed by asphyxiation under 95% CO2 and femurs were removed. Bone marrow was aseptically isolated from the femurs. The cells (5×10^5/mL) were cultured at 37° C. with 5% CO2 in culture medium consisting of RPMI with 10% FCS, 0.1 mM non-essential amino acids, 50 μg/mL penicillin/streptomycin and 20% conditioned WEHI-3 medium. Conditioned WEHI-3 medium was prepared from WEHI-3 cells (ATCC), which were cultured in Iscoves Dulbeccos medium with 10% FCS, 4 mM L-glutamine, 1.5 g/L sodium carbonate, 0.05 μM beta-mercaptoethanol and 50 μg/mL penicillin/streptomycin. The filtered supernatant was used as the conditioned WEHI-3 medium. After 16 h in culture, the bone marrow cells were transferred to a new flask. The medium was refreshed once per week. After four weeks, the cells were tested by flow cytometry for IgE receptor and CD117 (c-kit) expression. Mast cells were incubated with anti-DNP IgE (ICN Pharmaceuticals, Costa Mesa, Calif.) or vehicle for 30 min, followed by FITC labeled anti-IgE (Pharmingen) or FITC labeled CD117 (Pharmingen) for 30 min on ice. The cultured mast cells consisted of a homogeneous population which was >99% IgE receptor positive and >99% CD117 positive. Mast cells of four to eight weeks culture time were used for experiments.
# Transwells (Costar, Cambridge, Mass.) of a pore size of […] were coated with 100 μL of 100 ng/mL human fibronectin (Sigma) for 2 h at room temperature. […] Mast cells (2×10^5/well) were added to the top chamber. The plates were incubated for 3 h at 37° C. Transwells were removed and the number of cells in the bottom chamber was counted for 60 sec using a flow cytometer.
# [4] = tested on: ovalbumin-sensitized mice; assay: Airway hyper-responsiveness to methacholine in ovalbumin-sensitized mice (whole body plethysmography); assay type: in vivo, mouse; settings: any of the first three doses, FIG. 7
# Protocol: Mice (n=8 per group) were sensitized by intraperitoneal injection of ovalbumin/alum on Days 0 and 14. On each of Days 21 through 24, mice were pretreated for 15 min with vehicle or with (5-chloro-1H-benzoimidazol-2-yl)-(4-methyl-piperazin-1-yl)-methanone prior to a 20 min challenge with PBS or ovalbumin.
# In one experiment, (5-chloro-1H-benzoimidazol-2-yl)-(4-methyl-piperazin-1-yl)-methanone was administered p.o. at 5, 20, or 50 mg/kg. In a second experiment, (5-chloro-1H-benzoimidazol-2-yl)-(4-methyl-piperazin-1-yl)-methanone was administered p.o. at 0.5, 2, or 5 mg/kg.
# Airway hyper-responsiveness in ovalbumin-sensitized animals was monitored in conscious mice by whole body plethysmography (Buxco). Mice (n=8 per group) were treated as described above for the cell measurements.
# [5] = molecular target: human histamine H4 receptor (Homo sapiens, UniProt Q9H3N8)
# human histamine H4 receptor, sequence (Q9H3N8 whole entry): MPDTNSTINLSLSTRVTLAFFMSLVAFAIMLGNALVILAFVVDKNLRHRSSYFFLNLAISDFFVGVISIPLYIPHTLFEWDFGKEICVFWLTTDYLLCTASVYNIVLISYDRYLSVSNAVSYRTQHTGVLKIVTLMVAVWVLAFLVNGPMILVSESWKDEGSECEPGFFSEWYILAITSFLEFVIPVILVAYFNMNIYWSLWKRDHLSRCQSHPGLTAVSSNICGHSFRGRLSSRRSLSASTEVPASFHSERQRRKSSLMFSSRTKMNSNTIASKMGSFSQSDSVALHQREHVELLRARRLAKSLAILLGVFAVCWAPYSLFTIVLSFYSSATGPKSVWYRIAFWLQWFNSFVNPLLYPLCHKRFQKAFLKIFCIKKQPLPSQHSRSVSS
# [6] = p.o., all doses of 5 mg/kg and greater, FIG. 5
# [7] = p.o., highest dose tested (50 mg/kg)
smiles,measurement,setting,value
CN1CCN(C(=O)c2cc3cc(Cl)ccc3[nH]2)CC1 [(5-Chloro-1H-indol-2-yl)-(4-methyl-piperazin-1-yl)-methanone],number of eosinophils in BAL fluid,"[1]; s.c., 60 and 100 mg/kg, FIG. 6",significantly reduced
same,total cell number in BAL fluid,"[1]; s.c., 60 and 100 mg/kg, FIG. 6",significantly reduced
same,maximum reduction in the number of eosinophils,[1]; s.c.,50%
same,number of lymphocytes in BAL fluid,"[1]; s.c., same doses that provided reduction in eosinophils",significantly reduced
same,pIC50,human eosinophils,6.57
same,histamine-induced migration of mast cells into the sub-epithelial space,[2],blocked
CN1CCN(C(=O)c2nc3cc(Cl)ccc3[nH]2)CC1 [(5-Chloro-1H-benzoimidazol-2-yl)-(4-methyl-piperazin-1-yl)-methanone],inhibition at 1 µM,[3],84%
same,inhibition at 10 µM,[3],97%
same,macrophages in BAL fluid,"[1]; p.o., 5 mg/kg, second experiment",reduction
same,maximum reduction in the number of eosinophils,[1]; p.o.,50%
same,number of eosinophils in BAL fluid,[1]; [6],significantly reduced
same,total cell number in BAL fluid,[1]; [6],significantly reduced
same,number of macrophages in BAL fluid,[1]; [7],reduction
same,number of neutrophils in BAL fluid,[1]; [7],increase
same,number of lymphocytes in BAL fluid,"[1]; p.o., same doses which provided maximum reduction in eosinophils",significantly reduced
same,airway hyper-responsiveness to methacholine (Penh),[4],reduced
CN1CCN(C(=O)c2cc3cc(Br)ccc3[nH]2)CC1 [(5-Bromo-1H-indol-2-yl)-(4-methyl-piperazin-1-yl)-methanone],pKi,[5],8.10

# Source: patent US20040127395A1 (priority 2002, published 2004)
